Each block holds one compound with its values, some of them ahead of it.
Tests used:
whole milk folate binder = whole milk folate binder (Bos taurus, UniProt P02702); assay: competitive protein binding (CPB) radioassay for folates using pteroyltyrosine [125I] as radiolabel; conditions: for behaviour in the folate competitive protein binding assay of radiolabel made from directly coupled p-aminobenzoyltyrosine product, compared with label from the hydrolyzed ester: pteroyltyrosine from 6-formylpterin + H-PABA-L-Tyr-OH (Example 1f(2)), radioiodinated, gel chromatography; for dose response curves generated using pteroyltyrosine [125I] as label, folic acid versus N5-methyl THF: at high pH compared with lower pH
Method: The use of the Centria® analytical system, Union Carbide Corporation, in this example, is meant to be illustrative and other methods, both automated and manual, obvious to those skilled in the clinical diagnostic art are also within the scope of this invention.
Briefly, the Centria® system is a tri-modular instrument in which reagents are pipetted on to a multiwell transfer disk and mixed centrifugally with standards or patients' samples. After a suitable incubation period, the components are separated by a centrifugal elution of the bound and free fractions and the bound fractions counted three at a time.
Folic acid and N^5 -methyltetrahydrofolic acid standards in the range 0-20 nanograms/milliliter were prepared in 0.05 M sodium borate, pH 9.3 containing 0.1% human serum albumin. The whole milk binder was prepared according to the method of Rothenberg et al., (3) and dissolved in sodium borate, pH 9.3 containing 0.1% human serum albumin.
(50 microliters, 20,000 cpm) plus 85 microliters of water with the limited number of binding sites contained in a 200 microliter solution of whole milk folate binder. The binding reactions may be shown as follows:
After a 10 minute incubation, the reaction mixture was centrifugally transferred onto DEAE Sephadex A-25 columns (0.75×4 in.) where separation of complexed folate from free folate was effected with 1.4 ml of elution buffer
(3) S. Rothenberg, M. DaCosta, and Z. Rosenberg, New Eng.
A gamma counter which counts three of the 36 positions at a time for one minute, so constructed that only the eluate bottom portion of the test tubes fits into the counter, was then used to count all samples. Sequential counting of the tubes thus required about 12 minutes. A small computer with printout capability then printed out the data after completion of the cycle.

[1] = storage stability of the radioiodinated product, judged by assay performance; assay type: physicochemical; conditions: ten-week period, stored in 50% aqueous propylene glycol solution
From the text: Radioiodination of biological compounds frequently leads to marked chemical instability and subsequent degradation of the radiolabel. This problem is often accentuated in the radiolabel when the materials to be radioiodinated are known to be sensitive to oxygen, light or extremes in pH, as is the case with folic acid and some derivatives.
The reaction mixture was applied to a 1×20 cm Sephadex G25, fine, (Pharmacia Fine Chemicals, Uppsala, Sweden) column hydrated with distilled water and equilibrated with 0.1 M potassium phosphate, pH 7.5. The column was eluted with 0.1 M potassium phosphate buffer and 3 ml fractions collected. The product "peak" fractions 32-34 were collected, diluted 1:1 with propylene glycol and stored below 0° C.

carboxypeptidase A = assay: enzymatic hydrolysis of pteroyltyrosine followed by UV spectrophotometry; assay type: biochemical; conditions: two hours, ambient temperature, Tris-HCl with zinc chloride pH 7.3
Method: Two millilters of a solution of pteroyltrosine ([…]) in 0.025 M Tris-HCl containing 2 mM zinc chloride, pH 7.3 were diluted to 10 ml with distilled water. A portion of this solution (2 ml) was placed in a 1 cm cuvette and in another was placed 2 ml of distilled water. To each of the cuvettes was added 50 μl of a solution of 100 μl carboxypeptidase A suspension (Aldrich chemical, lot (060637) diluted with 0.9 ml of 10% lithium chloride.
The time course of the reaction was followed spectrophotometrically (uv) over a period of two hours at ambient temperature. An increase and shift in max from 280 to 277 nm and a marked decrease in absorption at 220 nm was observed. Two isobestic points at 242 and 282 nm were visible.

whole milk folate binder, sequence (P02702 20-234): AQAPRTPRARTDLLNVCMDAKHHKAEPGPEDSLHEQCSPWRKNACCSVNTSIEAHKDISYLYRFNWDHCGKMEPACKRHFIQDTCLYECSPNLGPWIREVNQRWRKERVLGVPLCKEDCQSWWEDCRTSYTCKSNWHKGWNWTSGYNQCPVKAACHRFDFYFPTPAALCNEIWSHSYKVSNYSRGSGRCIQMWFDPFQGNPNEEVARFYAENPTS

- performance as radiolabel in CPB radioassay for folic acid (whole milk folate binder; folic acid concentration range 0-20 ng/ml): effective radiolabel
- stability of radioiodinated product (assay performance on storage) [1]: no deterioration in assay performance
Compound: Nc1nc(O)c2nc(CNc3ccc(C(=O)N[C@@H](Cc4ccc(O)c([125I])c4)C(=O)O)cc3)cnc2n1 [pteroyltyrosine [^125 I]]

- behaviour in the folate competitive protein binding assay of radiolabel made from directly coupled p-aminobenzoyltyrosine product, compared with label from the hydrolyzed ester (whole milk folate binder): functioned identically
- behaviour in the folate competitive protein binding assay of radiolabel made from directly coupled p-aminobenzoyltyrosine product, compared with label from the hydrolyzed ester (whole milk folate binder; listed as Pt-L-Tyr-OH): identically
Compound: Nc1nc2ncc(CNc3ccc(C(=O)N[C@@H](Cc4ccc(O)cc4)C(=O)O)cc3)nc2c(=O)[nH]1 [pteroyltyrosine, Pteroyl-L-Tyrosine]
- UV spectral change on treatment with carboxypeptidase A (hydrolysis) (carboxypeptidase A): final spectrum was very similar to that of pteroic acid

Compound: Nc1nc2ncc(CNc3ccc(C(=O)N[C@@H](CCC(=O)O)C(=O)O)cc3)nc2c(=O)[nH]1 [folic acid]
- dose response curves generated using pteroyltyrosine [125I] as label, folic acid versus N5-methyl THF (whole milk folate binder): more nearly coincident than at lower pH

Compound: CN1c2c(O)nc(N)nc2NCC1CNc1ccc(C(=O)N[C@@H](CCC(=O)O)C(=O)O)cc1 (stereo partly shown) [N^5 -methyl THF, N-5-methyltetrahydrofolic acid, reference compound]
- dose response curves generated using pteroyltyrosine [125I] as label, folic acid versus N5-methyl THF (whole milk folate binder): more nearly coincident than at lower pH

Source: patent publication US4337339A, “Process for preparation of folic acid derivatives” (Baker Instruments Corp., priority 1979, dated 1982)
